Results from US9902728B2, “Pyrrolo and pyrazolopyrimidines as ubiquitin-specific protease 7 inhibitors” (Forma Therapeutics, Inc., priority 2014, dated 2018).

The molecules below were run against T1, USP7 (Homo sapiens, UniProt Q93009) (assay: USP7 Assay A (Ubitquin-Rhodamine 110 Assay)). Conditions: USP7 activity in USP7 assay A and B (table does not say which assay per compound); read-out: USP7_IC50.
T1 construct: USP7, construct USP7 (208-1102) 6*His, Viva Biotech; 6xHis (C); purchased Viva Biotech
Assay type: biochemical
In short: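 Ub-Rh110 cleavage in 20 mM Tris-HCl pH 8.0 with 1 mM GSH, 0.03% BGG, 0.01% Triton X-100; compound preincubated with enzyme 30 min before substrate.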

T1 sequence (Q93009 208-1102): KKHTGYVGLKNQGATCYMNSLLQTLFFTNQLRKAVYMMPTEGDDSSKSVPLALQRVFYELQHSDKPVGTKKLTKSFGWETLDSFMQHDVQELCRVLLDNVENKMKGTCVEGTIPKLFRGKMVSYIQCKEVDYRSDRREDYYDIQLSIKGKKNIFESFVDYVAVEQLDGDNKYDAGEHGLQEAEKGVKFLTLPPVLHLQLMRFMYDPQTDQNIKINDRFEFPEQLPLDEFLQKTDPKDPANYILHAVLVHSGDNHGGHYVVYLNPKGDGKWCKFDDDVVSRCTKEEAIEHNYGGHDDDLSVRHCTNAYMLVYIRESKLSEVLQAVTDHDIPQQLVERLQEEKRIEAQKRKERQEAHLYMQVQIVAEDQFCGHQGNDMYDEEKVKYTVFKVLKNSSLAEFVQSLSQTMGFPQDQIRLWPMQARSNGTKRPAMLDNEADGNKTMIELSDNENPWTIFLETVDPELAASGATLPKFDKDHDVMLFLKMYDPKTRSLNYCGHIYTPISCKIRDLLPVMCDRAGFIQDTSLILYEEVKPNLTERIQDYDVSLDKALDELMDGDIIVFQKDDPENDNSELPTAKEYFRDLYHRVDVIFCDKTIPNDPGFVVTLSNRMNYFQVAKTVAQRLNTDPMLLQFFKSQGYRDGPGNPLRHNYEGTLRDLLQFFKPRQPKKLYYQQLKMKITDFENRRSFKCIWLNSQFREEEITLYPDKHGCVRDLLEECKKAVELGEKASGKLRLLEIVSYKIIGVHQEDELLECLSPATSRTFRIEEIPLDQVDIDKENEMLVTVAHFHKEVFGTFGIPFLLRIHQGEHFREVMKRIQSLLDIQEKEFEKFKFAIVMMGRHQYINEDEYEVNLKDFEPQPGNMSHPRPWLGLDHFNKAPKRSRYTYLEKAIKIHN

Row | SMILES | IC50
1 | O=C(c1ccc(-n2ncc3c2CNC3)cc1)N1CCC(O)(Cn2cnc3c(cnn3-c3ccc(F)cc3)c2=O)CC1 [Compound I-611] | 1000 to 10000 nM
2 | O=C(c1ccc(-n2cc(CO)cn2)cc1)N1CCC(O)(Cn2cnc3c(cnn3-c3ccc(F)cc3)c2=O)CC1 [Compound I-612] | 1000 to 10000 nM
3 | NCc1cnn(-c2ccc(C(=O)N3CCC(O)(Cn4cnc5c(cnn5-c5ccc(F)cc5)c4=O)CC3)cc2)c1 [Compound I-613] | 1000 to 10000 nM
4 | O=C(c1cnc(C2CC2)o1)N1CCC(O)(Cn2cnc3c(cnn3-c3ccc(C4CC4)cc3)c2=O)CC1 [Compound I-629] | < 200 nM
5 | O=C(c1cnc(N2CCOCC2)o1)N1CCC(O)(Cn2cnc3c(cnn3-c3ccc(-c4ccccc4)cc3)c2=O)CC1 [Compound I-643] | 200 to 1000 nM
6 | O=C(C[C@H](C(F)F)n1cccn1)N1CCC(O)(Cn2cnc3c(cnn3-c3ccc(-c4ccccc4)cc3)c2=O)CC1 [Compound I-645] | 200 to 1000 nM
7 | O=C(C[C@@H](C(F)F)n1cccn1)N1CCC(O)(Cn2cnc3c(cnn3-c3ccc(-c4ccccc4)cc3)c2=O)CC1 [Compound I-646] | 1000 to 10000 nM
8 | C=CC(=O)N1CC[C@]1(C)C(=O)N1CCC(O)(Cn2cnc3c(cnn3-c3ccc(-c4ccccc4)cc3)c2=O)CC1 [Compound I-660] | 200 to 1000 nM
9 | Cc1ccc(C(=O)N2CCC(O)(Cn3cnc4c(cnn4-c4ccc(-n5cc(OCCO)cn5)cc4)c3=O)CC2)cc1 [Compound I-672] | 200 to 1000 nM
10 | Cc1ncn(-c2ccc(-n3ncc4c(=O)n(CC5(O)CCN(C(=O)c6ccc(F)cc6)CC5)cnc43)cc2)n1 [Compound I-673] | 1000 to 10000 nM
11 | CN1CC[C@@H](Oc2ccc(-c3ccc(-n4ncc5c(=O)n(CC6(O)CCN(C(=O)C7CC7)CC6)cnc54)cc3)cc2)C1 [Compound I-679] | < 200 nM
12 | CN1CC[C@H](Oc2ccc(-c3ccc(-n4ncc5c(=O)n(CC6(O)CCN(C(=O)C7CC7)CC6)cnc54)cc3)cc2)C1 [Compound I-680] | 200 to 1000 nM
13 | CN[C@H]1CCN(c2ccc(-c3ccc(-n4ncc5c(=O)n(CC6(O)CCN(C(=O)C7CC7)CC6)cnc54)cc3)cn2)C1 [Compound I-684] | < 200 nM
14 | CNC1CCN(c2ccc(-c3ccc(-n4ncc5c(=O)n(CC6(O)CCN(C(=O)C7CC7)CC6)cnc54)cc3)cn2)C1 (stereo not drawn) [Compound I-685] | < 200 nM
15 | O=C(C1CC1)N1CCC(O)(Cn2cnc3c(cnn3-c3ccc(-c4ccc(N5CC[C@H](O)C5)nc4)cc3)c2=O)CC1 [Compound I-686] | 200 to 1000 nM
16 | O=C(C1CC1)N1CCC(O)(Cn2cnc3c(cnn3-c3ccc(-c4ccc(N5CC[C@@H](O)C5)nc4)cc3)c2=O)CC1 [Compound I-687] | 200 to 1000 nM
17 | CN[C@H]1CCN(c2ccc(-c3ccc(-n4ncc5c(=O)n(CC6(O)CCN(C(=O)C7CC7)CC6)cnc54)cc3)cc2)C1 [Compound I-689] | < 200 nM
18 | CN[C@@H]1CCN(c2ccc(-c3ccc(-n4ncc5c(=O)n(CC6(O)CCN(C(=O)C7CC7)CC6)cnc54)cc3)cc2)C1 [Compound I-690] | 200 to 1000 nM
19 | CN1CC(Oc2ccc(-n3ncc4c(=O)n(CC5(O)CCN(C(=O)c6ccc(F)cc6)CC5)cnc43)cc2)C1 [Compound I-692] | < 200 nM
20 | O=C(c1ccc(F)cc1)N1CCC(O)(Cn2cnc3c(cnn3-c3ccc(OCC4(F)CCOCC4)cc3)c2=O)CC1 [Compound I-693] | 200 to 1000 nM
21 | O=C(c1ccc(F)cc1)N1CCC(O)(Cn2cnc3c(cnn3-c3ccc(OCC4(F)CCC4)cc3)c2=O)CC1 [Compound I-696] | 200 to 1000 nM
22 | CN1CCN(C(=O)N2CCC(O)(Cn3cnc4c(cnn4-c4ccc(OC5CCC(F)(F)CC5)cc4)c3=O)CC2)CC1 [Compound I-697] | > 10000 nM
23 | O=C(c1cnc(C2CC2)o1)N1CCC(O)(Cn2cnc3c(cnn3-c3ccc(N4CCC(F)(F)CC4)cc3)c2=O)CC1 [Compound I-699] | 200 to 1000 nM

Same assay, conditions: USP7 assay A and B (table does not say which assay per compound); read-out: USP7_IC50

Row | SMILES | IC50
24 | COc1ccc(C(=O)N2CCC(O)(C(C)n3cnc4c(cnn4-c4ccc(F)cc4)c3=O)CC2)cc1 (stereo not drawn) [Compound I-614] | > 10000 nM
25 | COc1ccc(-n2ncc3c(=O)n(CC4(O)CCN(C(=O)c5ccc(F)cc5)CC4)cnc32)cc1 [Compound I-620] | 200 to 1000 nM
26 | COc1cccc(-n2ncc3c(=O)n(CC4(O)CCN(C(=O)c5ccc(F)cc5)CC4)cnc32)c1 [Compound I-621] | 1000 to 10000 nM
27 | COc1ccc(-n2ncc3c(=O)n(C(C)C4(O)CCN(C(=O)c5ccc(F)cc5)CC4)cnc32)cc1 (stereo not drawn) [Compound I-624] | 200 to 1000 nM
28 | COc1ccc(C(=O)N2CCC(O)(C(C)n3cnc4c(cnn4-c4ccc(OC)cc4)c3=O)CC2)cc1 (stereo not drawn) [Compound I-625] | 1000 to 10000 nM
29 | COc1cc(-n2ncc3c(=O)n(CC4(O)CCN(C(=O)c5ccc(F)cc5)CC4)cnc32)ccc1F [Compound I-627] | 1000 to 10000 nM
30 | O=C(c1ccc(F)cc1)N1CCC(O)(Cn2cnc3c(cnn3-c3ccc(F)c(O)c3)c2=O)CC1 [Compound I-632] | 1000 to 10000 nM
31 | COC1(C)CCN(c2cc(-n3ncc4c(=O)n(CC5(O)CCN(C(=O)C6CC6)CC5)cnc43)ccc2F)C1 (stereo not drawn) [Compound I-633] | 1000 to 10000 nM
32 | CN1CCN(c2cc(-n3ncc4c(=O)n(CC5(O)CCN(C(=O)c6ccccc6)CC5)cnc43)ccc2F)CC1 [Compound I-634] | 1000 to 10000 nM
33 | Nc1cc(-n2ncc3c(=O)n(CC4(O)CCN(C(=O)c5ccc(F)cc5)CC4)cnc32)ccc1F [Compound I-635] | 1000 to 10000 nM
34 | CC1(O)CCN(c2cc(-n3ncc4c(=O)n(CC5(O)CCN(C(=O)C6CC6)CC5)cnc43)ccc2F)C1 (stereo not drawn) [Compound I-636] | 200 to 1000 nM
35 | C[C@]1(O)CCN(c2cc(-n3ncc4c(=O)n(CC5(O)CCN(C(=O)C6CC6)CC5)cnc43)ccc2F)C1 [Compound I-637] | 200 to 1000 nM
36 | C[C@@]1(O)CCN(c2cc(-n3ncc4c(=O)n(CC5(O)CCN(C(=O)C6CC6)CC5)cnc43)ccc2F)C1 [Compound I-638] | 200 to 1000 nM
37 | O=C(c1ccc(F)cc1)N1CCC(O)(Cn2cnc3c(cnn3-c3ccc(F)c(N4CCOCC4)c3)c2=O)CC1 [Compound I-639] | 1000 to 10000 nM
38 | O=C(c1ccc(F)cc1)N1CCC(O)(Cn2cnc3c(cnn3-c3ccc(F)c(CO)c3)c2=O)CC1 [Compound I-640] | 1000 to 10000 nM
39 | O=C(c1ccc(OC(F)F)cc1)N1CCC(O)(Cn2cnc3c(cnn3-c3ccc(F)c(CO)c3)c2=O)CC1 [Compound I-641] | 1000 to 10000 nM
40 | CC(CC(=O)N1CCC(O)(Cn2cnc3c(cnn3-c3ccc(-c4ccccc4)cc3)c2=O)CC1)n1cccn1 (stereo not drawn) [Compound I-648] | 1000 to 10000 nM
41 | C[C@@H](CC(=O)N1CCC(O)(Cn2cnc3c(cnn3-c3ccc(-c4ccccc4)cc3)c2=O)CC1)n1cccn1 [Compound I-649] | 200 to 1000 nM
42 | C[C@H](CC(=O)N1CCC(O)(Cn2cnc3c(cnn3-c3ccc(-c4ccccc4)cc3)c2=O)CC1)n1cccn1 [Compound I-650] | 1000 to 10000 nM
43 | CC(CC(=O)N1CCC(O)(Cn2cnc3c(cnn3-c3ccc(-c4ccc(F)cc4)cc3)c2=O)CC1)n1cccn1 (stereo not drawn) [Compound I-652] | 200 to 1000 nM

Row | SMILES | IC50
44 | C[C@H](CC(=O)N1CCC(O)(Cn2cnc3c(cnn3-c3ccc(-c4ccc(F)cc4)cc3)c2=O)CC1)n1cccn1 [Compound I-653] | 200 to 1000 nM
45 | C[C@@H](CC(=O)N1CCC(O)(Cn2cnc3c(cnn3-c3ccc(-c4ccc(F)cc4)cc3)c2=O)CC1)n1cccn1 [Compound I-654] | > 10000 nM
46 | CNC(=O)N1CCC(O)(Cn2cnc3c(cnn3-c3ccc(-c4ccc(F)cc4)cc3)c2=O)CC1 [Compound I-655] | 1000 to 10000 nM
47 | C=CC(=O)N1CCC1C(=O)N1CCC(O)(Cn2cnc3c(cnn3-c3ccc(-c4ccccc4)cc3)c2=O)CC1 (stereo not drawn) [Compound I-657] | 200 to 1000 nM
48 | C#CC(=O)NC1CC(C(=O)N2CCC(O)(Cn3cnc4c(cnn4-c4ccc(-c5ccccc5)cc4)c3=O)CC2)C1 (stereo not drawn) [Compound I-658] | 1000 to 10000 nM
49 | O=C(NC1CNCC1F)N1CCC(O)(Cn2cnc3c(cnn3-c3ccc(-c4ccccc4)cc3)c2=O)CC1 (stereo not drawn) [Compound I-662] | > 10000 nM
50 | O=C(N[C@@H]1CNCC1F)N1CCC(O)(Cn2cnc3c(cnn3-c3ccc(-c4ccccc4)cc3)c2=O)CC1 (stereo partly drawn) [Compound I-663] | > 10000 nM
51 | O=C(N[C@H]1CNCC1F)N1CCC(O)(Cn2cnc3c(cnn3-c3ccc(-c4ccccc4)cc3)c2=O)CC1 (stereo partly drawn) [Compound I-664] | 1000 to 10000 nM
52 | O=C(c1ccccc1)N1CCC(O)(Cn2cnc3c(cnn3-c3ccc(-c4ccccc4)c(CO)c3)c2=O)CC1 [Compound I-665] | 1000 to 10000 nM
53 | O=C(C1CC1)N1CCC(O)(Cn2cnc3c(cnn3-c3ccc(-c4ccc(OC5CCNC5)cc4)cc3)c2=O)CC1 (stereo not drawn) [Compound I-675] | 200 to 1000 nM
54 | CN1CCC(Oc2ccc(-c3ccc(-n4ncc5c(=O)n(CC6(O)CCN(C(=O)C7CC7)CC6)cnc54)cc3)cc2)C1 (stereo not drawn) [Compound I-678] | 200 to 1000 nM
55 | CNC1CCN(c2ccc(-c3ccc(-n4ncc5c(=O)n(CC6(O)CCN(C(=O)C7CC7)CC6)cnc54)cc3)cc2)C1 (stereo not drawn) [Compound I-688] | 200 to 1000 nM
56 | NC1(c2cccc(-c3ccc(-n4ncc5c(=O)n(CC6(O)CCN(C(=O)C7CC7)CC6)cnc54)cc3)c2)COC1 [Compound I-691] | 1000 to 10000 nM
57 | O=C(C1CC1)N1CCC(O)(Cn2cnc3c(cnn3-c3ccc(-c4ccccc4)c(N4CCNCC4)c3)c2=O)CC1 [Compound I-698] | 200 to 1000 nM
58 | CN1CCN(c2ccc(-n3ncc4c(=O)n(CC5(O)CCN(C(=O)C6CC6)CC5)cnc43)cc2Cl)CC1 [Compound I-701] | 1000 to 10000 nM
59 | Cn1cc(-n2ncc3c(=O)n(CC4(O)CCN(C(=O)c5ccc(F)cc5)CC4)cnc32)cn1 [Compound I-703] | 1000 to 10000 nM
60 | O=C(c1ccc(F)cc1)N1CCC(O)(Cn2cnc3c(cnn3-c3cnn(-c4ccccc4)c3)c2=O)CC1 [Compound I-704] | 1000 to 10000 nM
61 | O=C(c1ccc(OC(F)F)cc1)N1CCC(O)(Cn2cnc3c(cnn3-c3cnn(C4CC4)c3)c2=O)CC1 [Compound I-705] | 1000 to 10000 nM
62 | CN(C)C(=O)N1CCC(O)(Cn2cnc3c(cc(-c4ccccc4)n3-c3ccc(F)cc3)c2=O)CC1 [Compound I-706] | 1000 to 10000 nM
63 | CN(C)c1ccc(-n2ncc3c(=O)n(CC4(O)CCN(C(=O)c5ccc(F)cc5)CC4)cnc32)cc1 [Compound I-707] | 200 to 1000 nM
